Results taken from patent US20060099283A1, “Leaf juice of plectranthus amboinicus for treating cancer and/or tumor” (priority 2004, published 2006).

Legend:
[1] = tested on: HepG2; assay: HepG2 hepatocellular carcinoma cell count after treatment; format: cell-based; conditions: Homo sapiens, 72 h; HepG2, day 3, 50 nM paciltaxel; read-out: inhibiting rate (cell growth)
Protocol: HepG2 and Hep3B cells were cultured in minimum essential medium supplemented with 10% fetal calf serum, 2 mM L-glutamine, 50 IU/mL penicillin, and 50 μg/mL streptomycin.
Cultures were maintained at 37° C. in a humidified atmosphere containing 5% CO2.
(§1) Treatment: In all in vitro experiments, 3% of the leaf juice prepared according to Example 1 was added to the cells after subcultured directly.
Cell count: Total cell counts were made by adding 20 μL of the cell suspension to 20 μL of 0.4% trypan blue, and counted under a phase contrast microscope.
The hepatocellular carcinoma cell lines used in the example are HepG2 and Huh7, and the manipulations of the cell culture and treatment are as described in Example 2. The cells were grouped into a control group (without treatment) and experiment groups treated with 5% of leaf juice, 50 nM paciltaxel, and combining 5% of leaf juice and 50 nM paciltaxel. Each group was repeated six times.

[2] = tested on: Huh7; assay: Huh7 hepatocellular carcinoma cell count after treatment; format: cell-based; conditions: Homo sapiens, Huh-7, 72 h; Huh7, day 3, 50 nM paciltaxel; read-out: inhibiting rate (cell growth)
Description: Cell lines: The following nine human tumor cell lines of different histologic origins were obtained from commercial cell culture collections unless indicated otherwise: HepG2 (haptocellular carcinoma, liver; provided by Dr. C H Huang, National Health Research Institute, Taipei, Taiwan), Hep3B (haptocellular carcinoma, liver; provided by Dr. C H Huang, National Health Research Institute, Taipei, Taiwan), U937 (myeloid leukemia), K562 (chronic myeloid leukemia, bone marrow), Calu-1 (epidermoid carcinoma, lung; provided by Dr. Y C Kuo, National Institute of Traditional Chinese Medicine, Taipei, Taiwan), TL (trophoblast-like cell line, placenta; provided by Dr. C K Ho, Veteran General Hospital, Taipei, Taiwan), Jurket (human lymphoblastoid T cell line), Bowes (human melanoma cell), and Huh7 (hepatocellular carcinoma/ectoderm).
Cultures were maintained at 37° C. in a humidified atmosphere containing 5% CO2. All cell reagents were obtained from Gibco-Invitrogen Co., Ltd (Grand Island, N.Y. U.S.A.) and HyClone (Logan, Utah, U.S.A.).
as §1
Cell count: Total cell counts were made by adding 20 μL of the cell suspension to 20 μL of 0.4% trypan blue, and counted under a phase contrast microscope. […]

Compound: CC(=O)O[C@H]1C(=O)[C@@]2(C)[C@H]([C@H](OC(=O)c3ccccc3)[C@]3(O)C[C@H](OC(=O)[C@H](O)[C@@H](NC(=O)c4ccccc4)c4ccccc4)C(C)=C1C3(C)C)[C@]1(OC(C)=O)CO[C@@H]1C[C@@H]2O [paciltaxel]
- inhibition at 0.05 µM [1]: 43.8%
- inhibition at 0.05 µM [2]: 66.1%
